According to US20070218016A1, “Use of Aroma Substance Mixtures as Agents Against Bad Breath” (SYMRISE GMBH & CO. KG, priority 2004, published 2007):

Tested on: sterile liquid medium inoculated with fresh morning saliva
Experiment: In vitro test for reduction of bad breath (inoculated medium smelled by a panel of testers)
Assay type: cell-based
Conditions: 0.05% added to inoculated samples, incubated at 37° C. for some days
Description: In Vitro Test for Reduction of Bad Breath
The test is based on the work of Goldberg and Rosenberg (Production of Oral Malodor in an in vitro System, S. Goldberg and M. Rosenberg, pp. 143-150, in: Bad Breath—A Multidisciplinary Approach, eds: D. van Steenberghe, M. Rosenberg, Leuven University Press, 1996) and was adapted for better reproducibility.
A sterile liquid medium inoculated with fresh morning saliva is incubated at 37° C. for some days and then smelled by a panel of testers.
An intensive, typical bad breath odour had formed. Non-inoculated controls have only a weak smell of the medium.
Triclosan® (5-chloro-2-(2,4-dichlorophenoxy)phenol) was added to inoculated samples in a concentration of 0.05% as a control for the tests.
By addition of in each case 0.01% of the mixtures E-1 to E-6 according to the invention (see Table 1) to inoculated samples, no smell—analogously to Triclosan®—was to be found after the incubation time. This value also corresponds to the minimum active concentration.
If 0.05% of a mixture according to the invention is added to the inoculated medium only one hour before the sensory evaluation, an unpleasant mixed smell of bad breath and a weak note of the mixture according to the invention is to be observed.

## Oc1cc(Cl)ccc1Oc1ccc(Cl)cc1Cl [Triclosan, 5-chloro-2-(2,4-dichlorophenoxy)phenol]
  smell after the incubation: same weak smell of the medium as the non-inoculated samples
